Laboratory results taken from the NIST ThermoML archive (doi:10.1016/j.jct.2015.08.014).

Assay: xn = mol fraction of the nth substance listed
Details: 100 kPa, Liquid; for electrical conductivity: Alternating current cell with electrodes; for mass density: Vibrating tube method; for viscosity: Capillary tube (Ostwald / Ubbelohde) method

CCCC[N+]1(C)CCCC1.N#CN=C=[N-] [1-butyl-1-methylpyrrolidinium dicyanamide] + O=C1CCCO1
electrical conductivity [S/m], 293.15 K
Details	Frequency=0.00652174 MHz	Frequency=0.00694444 MHz	Frequency=0.0075 MHz	Frequency=0.008 MHz	Frequency=0.00857143 MHz	Frequency=0.00892857 MHz	Frequency=0.00961538 MHz	Frequency=0.01 MHz
x1 = 0.0463	–	1.37	1.37	1.37	1.37	1.37	1.37	1.37
x1 = 0.0987	–	2.05	2.05	2.05	2.05	2.05	2.05	2.05
x1 = 0.1449	2.31	2.31	2.31	2.31	2.31	2.31	2.31	2.31
x1 = 0.1859	2.45	2.45	2.45	2.45	2.45	2.45	2.45	2.45
x1 = 0.2493	2.37	2.37	2.37	2.37	2.38	2.38	2.38	2.38
x1 = 0.3029	2.29	2.29	2.29	2.29	2.3	2.3	2.3	2.3
x1 = 0.3845	2.116	2.116	2.116	2.116	2.12	2.12	2.12	2.12
x1 = 0.4985	1.84	1.84	1.84	1.84	1.84	1.84	1.84	1.84
x1 = 0.6954	1.46	1.46	1.46	1.46	1.46	1.46	1.46	1.46
x1 = 0.9013	1.19	1.19	1.19	1.19	1.19	1.19	1.19	1.19
x1 = 1	1.123	1.123	1.123	1.123	1.123	1.124	1.124	1.124

Details	electrical conductivity, 298.15 K [S/m]	mass density, 293.15 K [kg/m3]	viscosity, 298.15 K [mPa·s]
x1 = 0.0463	1.47	–	–
x1 = 0.0987	2.21	1107.56	2.8
x1 = 0.1449	2.51	–	–
x1 = 0.1859	2.67	1091.31	4.02
x1 = 0.2493	2.613	–	–
x1 = 0.3029	2.54	1073.37	6.19
x1 = 0.3845	2.36	–	–
x1 = 0.4985	2.08	1050.78	–
x1 = 0.6954	1.68	1034.23	–
x1 = 0.9013	1.39	1021.32	–
x1 = 1	1.317	1016.28	–
